According to ChEMBL document CHEMBL4325871 (Eur J Med Chem, 2019):
Blank lines part the entries; values can stand above or below the compound they belong to.

Experiments:
[1] = target: Tyrosine-protein kinase JAK3 (Homo sapiens) (UniProt P52333); test: Inhibition of human JAK3 assessed as residual activity at 100 uM using poly[Glu:Tyr] (4:1) as substrate by [gamma-33P]-ATP assay relative to control
[2] = target: T1, Tau-tubulin kinase 1 (Homo sapiens, UniProt Q5TCY1)
[3] = target: T2, Serine/threonine-protein kinase Nek6 (Homo sapiens, UniProt Q9HC98); test: Inhibition of human NEK6 assessed as residual activity at 100 uM using casein as substrate by [gamma-33P]-ATP assay relative to control
[4] = target: T3, Serine/threonine-protein kinase Nek7 (Homo sapiens, UniProt Q8TDX7); test: Inhibition of human NEK7 assessed as residual activity at 100 uM using casein as substrate by [gamma-33P]-ATP assay relative to control
[5] = target: T2, Serine/threonine-protein kinase Nek6
[6] = target: T3, Serine/threonine-protein kinase Nek7
[7] = target: Activin receptor type-1-like (Homo sapiens) (UniProt P37023); test: Inhibition of human ALK1 assessed as residual activity at 100 uM using casein as substrate by [gamma-33P]-ATP assay relative to control
[8] = target: Bone morphogenetic protein receptor type-1A (Homo sapiens) (UniProt P36894); test: Inhibition of human ALK3 assessed as residual activity at 100 uM using casein as substrate by [gamma-33P]-ATP assay relative to control
[9] = target: Activin receptor type-1B (Homo sapiens) (UniProt P36896); test: Inhibition of human ALK4 assessed as residual activity at 100 uM using casein as substrate by [gamma-33P]-ATP assay relative to control
[10] = target: Bone morphogenetic protein receptor type-1B (Homo sapiens) (UniProt O00238); test: Inhibition of human ALK6 assessed as residual activity at 100 uM using casein as substrate by [gamma-33P]-ATP assay relative to control
[11] = target: T4, TGF-beta receptor type-2 (Homo sapiens, UniProt P37173); test: Inhibition of human TGFBR2 assessed as residual activity at 100 uM using MBP as substrate by [gamma-33P]-ATP assay relative to control
[12] = target: T4, TGF-beta receptor type-2
[13] = target: Wee1-like protein kinase (Homo sapiens) (UniProt P30291); test: Inhibition of human WEE1 assessed as residual activity at 100 uM using MBP as substrate by [gamma-33P]-ATP assay relative to control
[14] = target: T5, Serine/threonine-protein kinase WNK3 (Homo sapiens, UniProt Q9BYP7); test: Inhibition of human WNK3 assessed as residual activity at 100 uM using MBP as substrate by [gamma-33P]-ATP assay relative to control
[15] = target: T5, Serine/threonine-protein kinase WNK3
[16] = target: T6, Serine/threonine-protein kinase A-Raf (Homo sapiens) (UniProt P10398); test: Inhibition of human ARAF assessed as residual activity at 100 uM using MEK1 as substrate by [gamma-33P]-ATP assay relative to control
T6 sequence (whole entry): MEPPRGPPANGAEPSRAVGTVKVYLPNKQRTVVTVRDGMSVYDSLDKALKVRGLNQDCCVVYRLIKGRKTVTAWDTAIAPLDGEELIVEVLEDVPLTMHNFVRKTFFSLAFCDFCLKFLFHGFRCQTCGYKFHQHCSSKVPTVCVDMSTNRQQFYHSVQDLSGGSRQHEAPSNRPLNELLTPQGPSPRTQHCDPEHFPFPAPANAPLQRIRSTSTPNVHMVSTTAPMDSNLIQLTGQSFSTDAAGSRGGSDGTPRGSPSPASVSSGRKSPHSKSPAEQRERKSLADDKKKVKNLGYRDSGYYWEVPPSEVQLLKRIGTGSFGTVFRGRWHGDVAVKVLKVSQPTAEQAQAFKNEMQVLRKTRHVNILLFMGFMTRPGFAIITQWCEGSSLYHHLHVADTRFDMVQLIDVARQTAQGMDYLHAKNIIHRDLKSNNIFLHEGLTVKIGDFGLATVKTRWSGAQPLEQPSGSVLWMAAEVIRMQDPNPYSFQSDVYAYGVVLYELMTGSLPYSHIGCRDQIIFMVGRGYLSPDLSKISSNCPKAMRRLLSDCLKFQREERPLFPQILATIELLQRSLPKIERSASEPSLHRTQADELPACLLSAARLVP

[17] = target: T7, Casein kinase II subunit alpha (Homo sapiens, UniProt P68400); test: Inhibition of human CK2A assessed as residual activity at 100 uM using RRRDDDSDDD as substrate by [gamma-33P]-ATP assay relative to control
[18] = target: Dual specificity tyrosine-phosphorylation-regulated kinase 4 (Homo sapiens) (UniProt Q9NR20); test: Inhibition of human DYRK4 assessed as residual activity at 100 uM using RRRFRPASPLRGPPK as substrate by [gamma-33P]-ATP assay relative to control
[19] = target: T8, Receptor-interacting serine/threonine-protein kinase 3 (Homo sapiens, UniProt Q9Y572); test: Inhibition of human RIPK3 assessed as residual activity at 100 uM using MBP as substrate by [gamma-33P]-ATP assay relative to control
[20] = target: T9, Mitogen-activated protein kinase kinase kinase 20 (Homo sapiens, UniProt Q9NYL2); test: Inhibition of human ZAK assessed as residual activity at 100 uM using MBP as substrate by [gamma-33P]-ATP assay relative to control
[21] = target: Serine/threonine-protein kinase A-Raf (Homo sapiens, UniProt P10398)
[22] = target: T7, Casein kinase II subunit alpha
[23] = target: Dual specificity tyrosine-phosphorylation-regulated kinase 4 (Homo sapiens, UniProt Q9NR20)
[24] = target: T8, Receptor-interacting serine/threonine-protein kinase 3
[25] = target: T9, Mitogen-activated protein kinase kinase kinase 20
[26] = target: Mitogen-activated protein kinase 11 (Homo sapiens) (UniProt Q15759); test: Inhibition of human p38beta assessed as residual activity at 100 uM using MBP as substrate by [gamma-33P]-ATP assay relative to control
[27] = target: T1, Tau-tubulin kinase 1; test: Inhibition of human TTBK1 assessed as residual activity at 100 uM using MBP as substrate by [gamma-33P]-ATP assay relative to control
[28] = target: Tau-tubulin kinase 2 (Homo sapiens) (UniProt Q6IQ55); test: Inhibition of human TTBK2 assessed as residual activity at 100 uM using MBP as substrate by [gamma-33P]-ATP assay relative to control
[29] = target: T10, Mitogen-activated protein kinase kinase kinase 8 (Homo sapiens, UniProt P41279); test: Inhibition of human COT1 assessed as residual activity at 100 uM using MEK1 as substrate by [gamma-33P]-ATP assay relative to control
[30] = target: T11, Homeodomain-interacting protein kinase 1 (Homo sapiens, UniProt Q86Z02); test: Inhibition of human HIPK1 assessed as residual activity at 100 uM using MBP as substrate by [gamma-33P]-ATP assay relative to control
[31] = target: T12, Mitogen-activated protein kinase kinase kinase kinase 1 (Homo sapiens, UniProt Q92918); test: Inhibition of human HPK1 assessed as residual activity at 100 uM using MBP as substrate by [gamma-33P]-ATP assay relative to control
[32] = target: T13, Serine/threonine-protein kinase VRK2 (Homo sapiens, UniProt Q86Y07); test: Inhibition of human VRK2 assessed as residual activity at 100 uM using casein as substrate by [gamma-33P]-ATP assay relative to control
[33] = target: T10, Mitogen-activated protein kinase kinase kinase 8
[34] = target: T11, Homeodomain-interacting protein kinase 1
[35] = target: T12, Mitogen-activated protein kinase kinase kinase kinase 1
[36] = target: Serine/threonine-protein kinase VRK1 (Homo sapiens, UniProt Q99986)
[37] = target: T13, Serine/threonine-protein kinase VRK2

T10 sequence (P41279 whole entry): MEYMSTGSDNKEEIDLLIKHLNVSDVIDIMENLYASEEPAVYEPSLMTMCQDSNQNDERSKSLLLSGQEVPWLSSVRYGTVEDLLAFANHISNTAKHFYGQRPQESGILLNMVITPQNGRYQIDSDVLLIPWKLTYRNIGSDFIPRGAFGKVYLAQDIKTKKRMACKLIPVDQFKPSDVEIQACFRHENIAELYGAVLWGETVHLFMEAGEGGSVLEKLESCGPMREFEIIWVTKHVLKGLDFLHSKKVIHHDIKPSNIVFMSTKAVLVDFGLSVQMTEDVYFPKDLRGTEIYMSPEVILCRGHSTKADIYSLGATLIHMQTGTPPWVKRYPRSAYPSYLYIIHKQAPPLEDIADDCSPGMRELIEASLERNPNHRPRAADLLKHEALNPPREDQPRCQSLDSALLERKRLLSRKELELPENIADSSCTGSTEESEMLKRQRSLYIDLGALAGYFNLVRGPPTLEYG
T5 sequence (Q9BYP7 whole entry): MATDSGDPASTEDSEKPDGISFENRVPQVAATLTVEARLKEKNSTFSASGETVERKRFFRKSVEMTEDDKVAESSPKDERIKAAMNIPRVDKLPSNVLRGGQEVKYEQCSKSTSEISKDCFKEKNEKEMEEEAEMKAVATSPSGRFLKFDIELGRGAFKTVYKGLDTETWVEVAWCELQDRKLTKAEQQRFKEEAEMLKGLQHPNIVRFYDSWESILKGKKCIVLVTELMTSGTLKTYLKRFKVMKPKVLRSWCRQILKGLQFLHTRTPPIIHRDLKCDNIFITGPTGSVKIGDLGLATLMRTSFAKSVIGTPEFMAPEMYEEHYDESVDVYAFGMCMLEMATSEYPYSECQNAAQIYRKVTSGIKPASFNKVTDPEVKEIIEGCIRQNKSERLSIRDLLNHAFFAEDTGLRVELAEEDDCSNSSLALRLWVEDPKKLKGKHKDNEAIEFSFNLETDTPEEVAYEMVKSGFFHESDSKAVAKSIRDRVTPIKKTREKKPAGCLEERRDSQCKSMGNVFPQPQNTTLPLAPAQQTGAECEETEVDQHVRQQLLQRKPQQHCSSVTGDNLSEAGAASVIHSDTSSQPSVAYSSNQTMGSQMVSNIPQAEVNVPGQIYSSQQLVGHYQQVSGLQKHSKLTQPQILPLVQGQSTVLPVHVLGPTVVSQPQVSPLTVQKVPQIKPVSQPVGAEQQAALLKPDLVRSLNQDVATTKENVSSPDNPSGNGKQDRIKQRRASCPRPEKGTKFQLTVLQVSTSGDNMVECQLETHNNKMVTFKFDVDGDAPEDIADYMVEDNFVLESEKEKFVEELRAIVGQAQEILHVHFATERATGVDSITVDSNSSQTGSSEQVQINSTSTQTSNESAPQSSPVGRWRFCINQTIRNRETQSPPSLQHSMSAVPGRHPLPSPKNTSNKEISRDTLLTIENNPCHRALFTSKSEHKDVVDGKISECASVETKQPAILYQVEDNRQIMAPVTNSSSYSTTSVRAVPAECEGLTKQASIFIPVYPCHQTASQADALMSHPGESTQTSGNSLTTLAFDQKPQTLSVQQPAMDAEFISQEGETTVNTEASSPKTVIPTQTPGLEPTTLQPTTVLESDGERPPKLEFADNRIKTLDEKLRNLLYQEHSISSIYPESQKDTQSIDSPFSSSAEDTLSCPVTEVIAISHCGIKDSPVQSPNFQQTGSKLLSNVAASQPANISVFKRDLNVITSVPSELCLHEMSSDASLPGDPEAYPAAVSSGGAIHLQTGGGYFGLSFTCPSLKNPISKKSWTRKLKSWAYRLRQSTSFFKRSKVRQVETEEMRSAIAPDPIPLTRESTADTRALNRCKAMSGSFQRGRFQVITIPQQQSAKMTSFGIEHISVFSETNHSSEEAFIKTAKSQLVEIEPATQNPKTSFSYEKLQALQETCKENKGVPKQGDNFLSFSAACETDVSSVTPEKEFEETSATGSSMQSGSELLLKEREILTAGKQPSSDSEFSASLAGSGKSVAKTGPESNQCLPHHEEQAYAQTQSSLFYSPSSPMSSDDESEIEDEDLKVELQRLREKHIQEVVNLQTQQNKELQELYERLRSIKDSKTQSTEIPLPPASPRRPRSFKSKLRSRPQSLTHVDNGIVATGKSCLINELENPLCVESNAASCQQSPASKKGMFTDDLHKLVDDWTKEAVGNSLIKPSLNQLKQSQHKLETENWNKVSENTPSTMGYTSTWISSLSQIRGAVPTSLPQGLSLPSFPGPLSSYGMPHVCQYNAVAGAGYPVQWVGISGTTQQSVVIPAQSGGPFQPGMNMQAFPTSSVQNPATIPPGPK
T1 sequence (Q5TCY1 whole entry): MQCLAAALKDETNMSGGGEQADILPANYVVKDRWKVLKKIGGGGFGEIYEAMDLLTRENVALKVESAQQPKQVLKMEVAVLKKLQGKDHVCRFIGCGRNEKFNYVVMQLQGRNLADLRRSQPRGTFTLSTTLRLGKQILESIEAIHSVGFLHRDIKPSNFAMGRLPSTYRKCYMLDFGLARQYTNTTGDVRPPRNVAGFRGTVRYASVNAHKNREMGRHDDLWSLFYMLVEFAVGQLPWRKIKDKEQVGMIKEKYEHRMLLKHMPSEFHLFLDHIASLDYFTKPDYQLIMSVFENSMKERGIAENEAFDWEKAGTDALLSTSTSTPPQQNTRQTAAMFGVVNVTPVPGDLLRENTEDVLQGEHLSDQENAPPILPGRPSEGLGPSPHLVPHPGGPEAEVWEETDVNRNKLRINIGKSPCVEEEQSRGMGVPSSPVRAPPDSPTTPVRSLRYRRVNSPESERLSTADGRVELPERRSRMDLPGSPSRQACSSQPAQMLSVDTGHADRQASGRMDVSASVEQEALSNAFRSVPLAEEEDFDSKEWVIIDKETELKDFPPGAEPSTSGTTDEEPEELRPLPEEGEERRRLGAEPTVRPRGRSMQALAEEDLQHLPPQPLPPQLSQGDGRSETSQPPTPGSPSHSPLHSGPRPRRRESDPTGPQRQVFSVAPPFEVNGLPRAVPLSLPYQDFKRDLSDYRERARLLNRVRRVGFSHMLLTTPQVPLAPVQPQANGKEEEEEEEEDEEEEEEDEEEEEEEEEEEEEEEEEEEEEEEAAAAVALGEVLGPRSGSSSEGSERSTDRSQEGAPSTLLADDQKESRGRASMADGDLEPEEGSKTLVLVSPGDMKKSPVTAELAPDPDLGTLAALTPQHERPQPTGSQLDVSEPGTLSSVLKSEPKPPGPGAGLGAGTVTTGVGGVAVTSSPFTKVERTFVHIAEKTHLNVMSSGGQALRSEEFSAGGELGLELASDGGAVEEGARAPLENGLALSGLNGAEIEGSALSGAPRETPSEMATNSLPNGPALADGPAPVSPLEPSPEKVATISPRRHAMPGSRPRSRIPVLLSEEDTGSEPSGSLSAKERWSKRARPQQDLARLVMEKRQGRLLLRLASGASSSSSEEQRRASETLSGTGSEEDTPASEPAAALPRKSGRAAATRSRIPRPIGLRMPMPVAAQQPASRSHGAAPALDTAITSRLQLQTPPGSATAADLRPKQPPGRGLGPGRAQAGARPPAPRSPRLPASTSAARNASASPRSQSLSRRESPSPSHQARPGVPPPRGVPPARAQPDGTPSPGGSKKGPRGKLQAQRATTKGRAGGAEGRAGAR
T13 sequence (Q86Y07 whole entry): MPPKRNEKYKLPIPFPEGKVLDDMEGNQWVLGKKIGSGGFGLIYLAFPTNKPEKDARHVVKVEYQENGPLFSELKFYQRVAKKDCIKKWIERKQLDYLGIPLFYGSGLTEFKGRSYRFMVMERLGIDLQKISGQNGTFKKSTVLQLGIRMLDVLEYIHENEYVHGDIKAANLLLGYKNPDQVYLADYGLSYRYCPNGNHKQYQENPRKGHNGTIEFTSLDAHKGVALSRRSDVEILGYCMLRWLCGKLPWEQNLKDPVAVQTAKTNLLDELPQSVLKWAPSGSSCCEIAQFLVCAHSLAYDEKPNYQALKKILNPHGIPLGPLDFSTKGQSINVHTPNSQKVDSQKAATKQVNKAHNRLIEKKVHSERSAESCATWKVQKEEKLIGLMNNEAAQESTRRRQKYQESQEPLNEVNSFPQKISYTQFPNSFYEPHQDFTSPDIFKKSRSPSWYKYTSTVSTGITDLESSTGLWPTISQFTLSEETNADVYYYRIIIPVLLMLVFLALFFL
T2 sequence (Q9HC98 whole entry): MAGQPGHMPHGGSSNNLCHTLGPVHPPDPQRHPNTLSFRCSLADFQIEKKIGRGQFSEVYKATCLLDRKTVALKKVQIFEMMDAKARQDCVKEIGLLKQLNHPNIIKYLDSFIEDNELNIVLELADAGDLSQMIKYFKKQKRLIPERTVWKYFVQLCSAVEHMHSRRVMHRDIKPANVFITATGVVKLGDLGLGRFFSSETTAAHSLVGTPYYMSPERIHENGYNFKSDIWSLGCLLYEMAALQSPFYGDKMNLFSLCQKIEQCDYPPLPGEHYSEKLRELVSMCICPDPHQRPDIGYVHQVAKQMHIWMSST
T4 sequence (P37173 whole entry): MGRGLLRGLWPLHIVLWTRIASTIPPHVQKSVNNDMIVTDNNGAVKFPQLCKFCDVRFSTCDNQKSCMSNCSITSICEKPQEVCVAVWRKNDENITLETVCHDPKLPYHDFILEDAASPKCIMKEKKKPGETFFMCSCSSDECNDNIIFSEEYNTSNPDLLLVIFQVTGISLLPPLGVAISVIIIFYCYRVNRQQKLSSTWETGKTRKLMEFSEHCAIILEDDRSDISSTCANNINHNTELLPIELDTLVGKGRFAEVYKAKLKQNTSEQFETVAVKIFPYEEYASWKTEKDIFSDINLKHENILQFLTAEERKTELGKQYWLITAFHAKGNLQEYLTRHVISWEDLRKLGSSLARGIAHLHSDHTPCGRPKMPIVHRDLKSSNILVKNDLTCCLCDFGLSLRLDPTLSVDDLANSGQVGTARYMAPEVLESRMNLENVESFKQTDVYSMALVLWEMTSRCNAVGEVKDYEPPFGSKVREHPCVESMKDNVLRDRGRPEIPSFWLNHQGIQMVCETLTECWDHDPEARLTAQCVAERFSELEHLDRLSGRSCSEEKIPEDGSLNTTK

SMILES: CCOc1nc(NC(=O)Cc2cc(OC)ccc2OC)cc(N)c1C#N
Activity [1]: < 65%

SMILES: O=C1Nc2ccc3ncsc3c2/C1=C/c1c[nH]cn1
Activity [3]: < 65%
Activity [4]: < 65%
IC50 [5]: 59800 nM
IC50 [6]: 7280 nM

SMILES: C=CCn1c(=O)c2cnc(Nc3ccc(N4CCN(C)CC4)cc3)nc2n1-c1cccc(C(C)(C)O)n1 [ADAVOSERTIB]
Activity [13]: < 65%
Activity [14]: < 65%
IC50 [15]: 2310 nM

SMILES: O=C1Nc2ccc(I)cc2C1=Cc1cc(Br)c(O)c(Br)c1 [GW305074X]
Activity [16]: < 65%
Activity [17]: < 65%
Activity [18]: < 65%
Activity [19]: < 65%
Activity [20]: < 65%
IC50 [21]: 14.6 nM
IC50 [22]: 279 nM
IC50 [23]: 4380 nM
IC50 [24]: 5400 nM
IC50 [25]: 1890 nM

SMILES: Cn1cc(C2=C(c3cn(CCCSC(=N)N)c4ccccc34)C(=O)NC2=O)c2ccccc21 [BISINDOLYLMALEIMIDE IX]
Activity [29]: < 65%
Activity [30]: < 65%
Activity [31]: < 65%
Activity [32]: < 65%
IC50 [33]: 9950 nM
IC50 [34]: 621 nM
IC50 [35]: 52.9 nM
IC50 [36]: 743 nM
IC50 [37]: 16400 nM

More lines, now with the values ahead:

IC50 [2]: 47200 nM
SMILES: Oc1ccc(-c2nc(-c3ccncc3)c(-c3ccc(F)cc3)[nH]2)cc1 [SB-202190]

Activity [7]: < 65%
Activity [8]: < 65%
Activity [9]: < 65%
Activity [10]: < 65%
Activity [11]: < 65%
IC50 [12]: 156 nM
SMILES: c1ccc2c(-c3cnn4cc(-c5ccc(N6CCNCC6)cc5)cnc34)ccnc2c1

Activity [26]: < 65%
Activity [27]: < 65%
Activity [28]: < 65%
SMILES: Oc1ccc(-c2nc(-c3ccc(F)cc3)c(-c3ccncc3)[nH]2)cc1
